According to PubChem BioAssay (NCI):
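GI50 = concentration required for 50% inhibition of growth. TGI denotes the concentration required for complete inhibition of growth.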

Columns and labels:
Test in all cases: NCI anticancer screen, dose series, 384-well format
786-0 renal = test system: 786-0 renal
A498 renal = test system: A498 renal
A549 NSCLC = test system: A549 NSCLC
ACHN renal = test system: ACHN renal
BT-549 breast = test system: BT-549 breast
CAKI-1 renal = test system: CAKI-1 renal
CCRF-CEM leukemia = test system: CCRF-CEM leukemia
COLO 205 colon = test system: COLO 205 colon
DU-145 prostate = test system: DU-145 prostate
EKVX NSCLC = test system: EKVX NSCLC
HCC-2998 colon = test system: HCC-2998 colon
HCT-15 colon = test system: HCT-15 colon
HL-60(TB) leukemia = test system: HL-60(TB) leukemia
HOP-62 NSCLC = test system: HOP-62 NSCLC
HOP-92 NSCLC = test system: HOP-92 NSCLC
HS 578T breast = test system: HS 578T breast
HT29 colon = test system: HT29 colon
IGROV1 ovarian = test system: IGROV1 ovarian
K-562 leukemia = test system: K-562 leukemia
KM12 colon = test system: KM12 colon
LOX IMVI melanoma = test system: LOX IMVI melanoma
M14 melanoma = test system: M14 melanoma
MALME-3M melanoma = test system: MALME-3M melanoma
MCF7 breast = test system: MCF7 breast
MDA-MB-231 breast = test system: MDA-MB-231 breast
MDA-MB-435 melanoma = test system: MDA-MB-435 melanoma
MDA-MB-468 breast = test system: MDA-MB-468 breast
MOLT-4 leukemia = test system: MOLT-4 leukemia
NCI-H226 lung = test system: NCI-H226 lung
NCI-H23 lung = test system: NCI-H23 lung
NCI-H460 NSCLC = test system: NCI-H460 NSCLC
NCI-H522 lung = test system: NCI-H522 lung
NCI/ADR-RES ovarian = test system: NCI/ADR-RES ovarian
OVCAR-3 ovarian = test system: OVCAR-3 ovarian
OVCAR-4 ovarian = test system: OVCAR-4 ovarian
OVCAR-5 ovarian = test system: OVCAR-5 ovarian
OVCAR-8 ovarian = test system: OVCAR-8 ovarian
PC-3 prostate = test system: PC-3 prostate
RPMI-8226 leukemia = test system: RPMI-8226 leukemia
RXF 393 renal = test system: RXF 393 renal
SF-268 CNS = test system: SF-268 CNS
SF-295 CNS = test system: SF-295 CNS
SF-539 CNS = test system: SF-539 CNS
SK-MEL-5 melanoma = test system: SK-MEL-5 melanoma
SK-OV-3 ovarian = test system: SK-OV-3 ovarian
SN12C renal = test system: SN12C renal
SNB-19 CNS = test system: SNB-19 CNS
SNB-75 CNS = test system: SNB-75 CNS
SR leukemia = test system: SR leukemia
SW-620 colon = test system: SW-620 colon
T-47D breast = test system: T-47D breast
TK-10 renal = test system: TK-10 renal
U251 glioblastoma = test system: U251 glioblastoma
UACC-257 melanoma = test system: UACC-257 melanoma
UACC-62 melanoma = test system: UACC-62 melanoma
UO-31 renal = test system: UO-31 renal

SMILES: CN(C)CCNC(=O)NC[C@H]1CC[C@@H]2[C@H](O1)c1cc(C(F)(F)F)ccc1N[C@H]2c1ccccc1
- GI50 ([…]-0 renal): 528 nM
- TGI (786-0 renal): 19000 nM
- GI50 (A498 renal): 88.3 nM
- TGI (A498 renal): 18700 nM
- GI50 (A549 NSCLC): 124 nM
- TGI (A549 NSCLC): 16900 nM
- GI50 (ACHN renal): 11300 nM
- TGI (ACHN renal): 23500 nM
- GI50 (BT-549 breast): 113 nM
- TGI (BT-549 breast): 10400 nM
- GI50 (CAKI-1 renal): 223 nM
- TGI (CAKI-1 renal): 26300 nM
- GI50 (CCRF-CEM leukemia): 28.9 nM
- TGI (CCRF-CEM leukemia): 57 nM
- GI50 (COLO 205 colon): 39.4 nM
- TGI (COLO 205 colon): 156 nM
- GI50 (DU-145 prostate): 279 nM
- TGI (DU-145 prostate): 4690 nM
- GI50 (EKVX NSCLC): 261 nM
- TGI (EKVX NSCLC): 16300 nM
- GI50 (HCC-2998 colon): 93.2 nM
- TGI (HCC-2998 colon): 11700 nM
- GI50 (HCT-15 colon): 303 nM
- TGI (HCT-15 colon): 12000 nM
- GI50 (HL-60(TB) leukemia): 32.5 nM
- TGI (HL-60(TB) leukemia): 82.4 nM
- GI50 (HOP-62 NSCLC): 618 nM
- TGI (HOP-62 NSCLC): 18200 nM
- GI50 (HOP-92 NSCLC): 206 nM
- TGI (HOP-92 NSCLC): 16100 nM
- GI50 (HS 578T breast): 36 nM
- TGI (HS 578T breast): 131 nM
- GI50 (HT29 colon): 168 nM
- TGI (HT29 colon): 443 nM
- GI50 (IGROV1 ovarian): 10500 nM
- TGI (IGROV1 ovarian): 27000 nM
- GI50 (K-562 leukemia): 53.3 nM
- TGI (K-562 leukemia): 257 nM
- GI50 (KM12 colon): 128 nM
- TGI (KM12 colon): 11800 nM
- GI50 (LOX IMVI melanoma): 1170 nM
- TGI (LOX IMVI melanoma): 17600 nM
- GI50 (M14 melanoma): 31.4 nM
- TGI (M14 melanoma): 92.3 nM
- GI50 (MALME-3M melanoma): 387 nM
- TGI (MALME-3M melanoma): 15000 nM
- GI50 (MCF7 breast): 64.9 nM
- TGI (MCF7 breast): 14000 nM
- GI50 (MDA-MB-231 breast): 235 nM
- TGI (MDA-MB-231 breast): 13800 nM
- GI50 (MDA-MB-435 melanoma): 21.8 nM
- TGI (MDA-MB-435 melanoma): 45.8 nM
- GI50 (MDA-MB-468 breast): 29.6 nM
- TGI (MDA-MB-468 breast): 64.7 nM
- GI50 (MOLT-4 leukemia): 69.6 nM
- TGI (MOLT-4 leukemia): 193 nM
- GI50 (NCI-H226 lung): 2760 nM
- TGI (NCI-H226 lung): 23100 nM
- GI50 (NCI-H23 lung): 124 nM
- TGI (NCI-H23 lung): 1980 nM
- GI50 (NCI-H460 NSCLC): 36 nM
- TGI (NCI-H460 NSCLC): 130 nM
- GI50 (NCI-H522 lung): 29.8 nM
- TGI (NCI-H522 lung): 73.6 nM
- GI50 (NCI/ADR-RES ovarian): 4300 nM
- TGI (NCI/ADR-RES ovarian): 18900 nM
- GI50 (OVCAR-3 ovarian): 37.5 nM
- TGI (OVCAR-3 ovarian): 164 nM
- GI50 (OVCAR-4 ovarian): 370 nM
- TGI (OVCAR-4 ovarian): 10800 nM
- GI50 (OVCAR-5 ovarian): 380 nM
- TGI (OVCAR-5 ovarian): 12700 nM
- GI50 (OVCAR-8 ovarian): 63.4 nM
- TGI (OVCAR-8 ovarian): 16600 nM
- GI50 (PC-3 prostate): 128 nM
- TGI (PC-3 prostate): 17700 nM
- GI50 (RPMI-8226 leukemia): 19.3 nM
- TGI (RPMI-8226 leukemia): 38.9 nM
- GI50 (RXF 393 renal): 78.4 nM
- TGI (RXF 393 renal): 13300 nM
- GI50 (SF-268 CNS): 289 nM
- TGI (SF-268 CNS): 16400 nM
- GI50 (SF-295 CNS): 171 nM
- TGI (SF-295 CNS): 2060 nM
- GI50 (SF-539 CNS): 93.7 nM
- TGI (SF-539 CNS): 10800 nM
- GI50 (SK-MEL-5 melanoma): 39.8 nM
- TGI (SK-MEL-5 melanoma): 370 nM
- GI50 (SK-OV-3 ovarian): 42.5 nM
- TGI (SK-OV-3 ovarian): 18100 nM
- GI50 (SN12C renal): 5120 nM
- TGI (SN12C renal): 31300 nM
- GI50 (SNB-19 CNS): 163 nM
- TGI (SNB-19 CNS): 19300 nM
- GI50 (SNB-75 CNS): 152 nM
- TGI (SNB-75 CNS): 16200 nM
- GI50 (SR leukemia): 20.4 nM
- TGI (SR leukemia): 41.6 nM
- GI50 (SW-620 colon): 89.4 nM
- TGI (SW-620 colon): 16000 nM
- GI50 (T-47D breast): 325 nM
- TGI (T-47D breast): 12900 nM
- GI50 (TK-10 renal): 14000 nM
- TGI (TK-10 renal): 28700 nM
- GI50 (U251 glioblastoma): 80.3 nM
- TGI (U251 glioblastoma): 18100 nM
- GI50 (UACC-257 melanoma): 375 nM
- TGI (UACC-257 melanoma): 15100 nM
- GI50 (UACC-62 melanoma): 56 nM
- TGI (UACC-62 melanoma): 14500 nM
- GI50 (UO-31 renal): 20000 nM
- TGI (UO-31 renal): 85600 nM
